# Test system: 292921-168-R-J2-PDC KRAS tumor spheroid viability
# Experiment: Anticancer human tumor 292921-168-R-J2-PDC patient-derived pancreatic carcinoma cell line growth inhibition [KRAS2]
# Conditions: spheroids with HUVEC and MSC; for viability, T/C: stronger effect = lower value
# Source text: Multicellular complex tumor spheroid response to RAS pathway inhibitors in combination with a targeted agents in patient-derived cell lines with oncogenic KRAS variants from multiple cancer types
# A high-throughput screen of multi-cell type tumor spheroids was designed to identify active combinations of targeted small molecules and KRAS pathway inhibitors. Complex spheroids include a stromal component modeled by human endothelial cells (HUVEC) and fibroblasts modeled by human mesenchymal stem cells (MSCs). The concentration ranges selected for each drug and investigational agent were based upon clinically achievable concentrations if the clinical Cmax of the agent was known.
# Compounds. The drugs and investigational agents: BI-3406 (NSC825286), BAY-293 (NSC824723), batoprotafib (TNO155; NSC825523), sotorasib (AMG 510; NSC818433), MRTX1257 (NSC819558), elimusertib (BAY 1895344; NSC800525), molibresib (GSK525762; NSC774829), temuterkib (LY3214996; NSC803410), venetoclax (NSC766270), alisertib (NSC759677), olaparib (NSC753686), talazoparib (NSC767125), erdafitinib (NSC781556), ipatasertib (NSC767898), cabozantinib (NSC761068), nintedanib (NSC756659), abemaciclib (NSC768073), docetaxel (NSC628503), trametinib (NSC758246), and sapanisertib (NSC764658) were obtained from the National Cancer Institute (NCI) Developmental Therapeutics Program Chemical Repository. The FDA-approved anticancer drug set is available from the Developmental Therapeutics Program. […] The stock solutions were prepared in dimethyl sulfoxide (DMSO, Sigma-Aldrich, St. Louis, MO, cat. D2650) at 800-fold the tested concentration and stored at -70 degrees C prior to their use. All drugs and investigational agents were tested over a range starting from a high concentration at or near the clinical Cmax and decreasing in half-log increments. If the clinical Cmax for an agent had not been determined, the highest concentration tested was 10 microM.
# Cell Culture. All cells were maintained in an incubator at 37 degrees C and 5% CO2 with 95% humidity. The PDC lines were cultured according to standard operating procedures established by the NCI PDMR (https://pdmr.cancer.gov/sops/default.htm). Briefly, all PDCs were thawed and cultured in Matrigel-coated flasks prepared with a working solution of 1X Ham's F-12 nutrient mix, without supplementation (Invitrogen, Waltham, MA, cat. 11765054), 100 U/mL penicillin-streptomycin (Invitrogen, cat. 15140122), and 2.5% Matrigel (Corning Inc., Corning, NY, cat. 354248) for the first three passages. All PDCs were cultured in complete DMEM/F-12 media containing advanced DMEM/F-12 (Invitrogen, cat. 12634028), 4.9% defined fetal bovine serum, heat inactivated (HyClone Laboratories Inc., Logan, UT, cat. SH30070.03HI), 389 ng/mL hydrocortisone (Sigma-Aldrich, cat. H4001), 9.7 ng/mL human EGF recombinant protein (Invitrogen, cat. PHG0313), 23.4 microg/mL adenine (Sigma-Aldrich, cat. A2786), 97.3 U/mL penicillin-streptomycin (Invitrogen, cat. 15140122), 1.9 mM L-glutamine (Invitrogen, cat. 25030081), and 9.7 microM Y-27632 dihydrochloride (Tocris Bioscience, Bristol, United Kingdom, cat. 1254). The PDCs were cultured in complete DMEM/F12 media without 9.7 microM Y-27632 dihydrochloride for at least two passages prior to the screen. The established cell line HOP-62 was cultured in RPMI 1640 medium, HEPES (Invitrogen, cat. 22400105) with 10% defined fetal bovine serum (HyClone Laboratories Inc., cat. SH30070.03) and 2 mM L-glutamine (Invitrogen, cat. 25030081). The pooled donor HUVEC were cultured in endothelial cell growth medium 2 (PromoCell, Heidelberg, Germany, cat. C-22011) and the hMSC were cultured in mesenchymal stem cell growth medium 2 (PromoCell, cat. C-28009). For all experiments, HUVEC and hMSC were used at passages </=5, while the malignant cell lines were used at passages </=15. […]
# [1] = curve of first compound, second compound 0.1 µM
# [2] = curve of first compound, second compound 0.316 µM
# [3] = curve of first compound, second compound 1 µM
# [4] = curve of first compound, second compound 3.16 µM
# [5] = second compound 0.1 µM, first compound 0.0316 µM
# [6] = second compound 0.1 µM, first compound 0.1 µM
# [7] = second compound 0.316 µM, first compound 0.0316 µM
# [8] = second compound 0.316 µM, first compound 0.1 µM
# [9] = second compound 1 µM, first compound 0.0316 µM
# [10] = second compound 1 µM, first compound 0.1 µM
# [11] = second compound 3.16 µM, first compound 0.0316 µM
# [12] = second compound 3.16 µM, first compound 0.1 µM
# 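Note: drug exposure lasted seven days after spheroids formed for three days.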
# 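Throughout, for viability, T/C: percent of DMSO vehicle control viability which is 100%.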
structure (smiles),measurement,setting,value
CC(C)n1nc(-c2ccc3oc(N)nc3c2)c2c(N)ncnc21 + C=CC(=O)N1CCN(c2nc(OCC3CCCN3C)nc3c2CCN(c2cccc4cccc(C)c24)C3)CC1CC#N,IC50,"curve of first compound, second compound 0.0316 µM",2.49 nM
same,IC50,[1],2.84 nM
same,IC50,[2],1.07 nM
same,IC50,[3],< 0.316 nM
same,IC50,[4],< 0.316 nM
same,"viability, T/C","second compound 0.0316 µM, first compound 0.000316 µM",78.8%
same,"viability, T/C","second compound 0.0316 µM, first compound 0.001 µM",62.7%
same,"viability, T/C","second compound 0.0316 µM, first compound 0.00316 µM",48.3%
same,"viability, T/C","second compound 0.0316 µM, first compound 0.01 µM",30.8%
same,"viability, T/C","second compound 0.0316 µM, first compound 0.0316 µM",25.3%
same,"viability, T/C","second compound 0.0316 µM, first compound 0.1 µM",21.1%
same,"viability, T/C","second compound 0.1 µM, first compound 0.000316 µM",83.3%
same,"viability, T/C","second compound 0.1 µM, first compound 0.001 µM",70.8%
same,"viability, T/C","second compound 0.1 µM, first compound 0.00316 µM",47.3%
same,"viability, T/C","second compound 0.1 µM, first compound 0.01 µM",31%
same,"viability, T/C",[5],21.4%
same,"viability, T/C",[6],20.9%
same,"viability, T/C","second compound 0.316 µM, first compound 0.000316 µM",70.2%
same,"viability, T/C","second compound 0.316 µM, first compound 0.001 µM",50.5%
same,"viability, T/C","second compound 0.316 µM, first compound 0.00316 µM",36.9%
same,"viability, T/C","second compound 0.316 µM, first compound 0.01 µM",28.6%
same,"viability, T/C",[7],21.6%
same,"viability, T/C",[8],18.5%
same,"viability, T/C","second compound 1 µM, first compound 0.000316 µM",30.9%
same,"viability, T/C","second compound 1 µM, first compound 0.001 µM",25.5%
same,"viability, T/C","second compound 1 µM, first compound 0.00316 µM",23.8%
same,"viability, T/C","second compound 1 µM, first compound 0.01 µM",17.8%
same,"viability, T/C",[9],15.7%
same,"viability, T/C",[10],13.8%
same,"viability, T/C","second compound 3.16 µM, first compound 0.000316 µM",1.12%
same,"viability, T/C","second compound 3.16 µM, first compound 0.001 µM",0.57%
same,"viability, T/C","second compound 3.16 µM, first compound 0.00316 µM",0.82%
same,"viability, T/C","second compound 3.16 µM, first compound 0.01 µM",0.33%
same,"viability, T/C",[11],0.47%
same,"viability, T/C",[12],0.73%
COc1cc2nccc(Oc3ccc(NC(=O)C4(C(=O)Nc5ccc(F)cc5)CC4)cc3)c2cc1OC + COc1cc2nc(C)nc(NC(C)c3cc(N)cc(C(F)(F)F)c3)c2cc1OC1CCOC1,IC50,[1],2310 nM
same,IC50,[2],2440 nM
same,IC50,[3],1590 nM
same,IC50,[4],996 nM
same,IC50,"curve of first compound, second compound 10 µM",< 31.6 nM
same,"viability, T/C",[5],102%
same,"viability, T/C",[6],110%
same,"viability, T/C","second compound 0.1 µM, first compound 0.316 µM",101%
same,"viability, T/C","second compound 0.1 µM, first compound 1 µM",77.8%
same,"viability, T/C","second compound 0.1 µM, first compound 3.16 µM",40%
same,"viability, T/C","second compound 0.1 µM, first compound 10 µM",21.1%
same,"viability, T/C",[7],99.4%
same,"viability, T/C",[8],99.4%
same,"viability, T/C","second compound 0.316 µM, first compound 0.316 µM",92%
same,"viability, T/C","second compound 0.316 µM, first compound 1 µM",75%
same,"viability, T/C","second compound 0.316 µM, first compound 3.16 µM",42.5%
same,"viability, T/C","second compound 0.316 µM, first compound 10 µM",23.7%
same,"viability, T/C",[9],102%
same,"viability, T/C",[10],86.9%
same,"viability, T/C","second compound 1 µM, first compound 0.316 µM",88.6%
same,"viability, T/C","second compound 1 µM, first compound 1 µM",60.4%
same,"viability, T/C","second compound 1 µM, first compound 3.16 µM",33.2%
same,"viability, T/C","second compound 1 µM, first compound 10 µM",17.6%
same,"viability, T/C",[11],73.6%
same,"viability, T/C",[12],72.9%
same,"viability, T/C","second compound 3.16 µM, first compound 0.316 µM",64.6%
same,"viability, T/C","second compound 3.16 µM, first compound 1 µM",51.8%
same,"viability, T/C","second compound 3.16 µM, first compound 3.16 µM",22.2%
same,"viability, T/C","second compound 3.16 µM, first compound 10 µM",11.8%
same,"viability, T/C","second compound 10 µM, first compound 0.0316 µM",45.1%
same,"viability, T/C","second compound 10 µM, first compound 0.1 µM",31.1%
same,"viability, T/C","second compound 10 µM, first compound 0.316 µM",36.6%
same,"viability, T/C","second compound 10 µM, first compound 1 µM",31.9%
same,"viability, T/C","second compound 10 µM, first compound 3.16 µM",15.8%
same,"viability, T/C","second compound 10 µM, first compound 10 µM",0.83%
CN(C)C/C=C/C(=O)Nc1cc2c(Nc3ccc(F)c(Cl)c3)ncnc2cc1O[C@H]1CCOC1,"viability, T/C",compound 0.000316 µM,101% [middle of 5 runs]
same,"viability, T/C",compound 0.001 µM,101% [middle of 5 runs]
same,"viability, T/C",compound 0.00316 µM,85.6% [middle of 5 runs]
same,"viability, T/C",compound 0.01 µM,82.7% [middle of 5 runs]
same,"viability, T/C",compound 0.0316 µM,75.9% [middle of 5 runs]
same,"viability, T/C",compound 0.1 µM,70.9% [middle of 5 runs]
same,IC50,curve of compound,> 100 nM

# From PubChem BioAssay AID1963870 (Molecular Pharmacology Branch, DTP, NCI, 2024)
